Activity calls are given as the source filed them.
What was measured:
Beta-galactosidase = Beta-galactosidase (Escherichia coli, UniProt Q8VNN2); experiment: Dose response counterscreen for EBI2 assay utilizing the enzyme, b-galactosidase.; format: functional
[1] = target: T1, Corticotropin-releasing factor receptor 2/Corticotropin-releasing factor-binding protein (Homo sapiens, UniProt P24387+Q13324); experiment: Dose Response confirmation of uHTS hits for small molecule antagonists of the CRF-binding protein and CRF-R2 receptor complex.; format: functional; details: read-out: IC50_Mean
T1 sequence (Q13324 whole entry): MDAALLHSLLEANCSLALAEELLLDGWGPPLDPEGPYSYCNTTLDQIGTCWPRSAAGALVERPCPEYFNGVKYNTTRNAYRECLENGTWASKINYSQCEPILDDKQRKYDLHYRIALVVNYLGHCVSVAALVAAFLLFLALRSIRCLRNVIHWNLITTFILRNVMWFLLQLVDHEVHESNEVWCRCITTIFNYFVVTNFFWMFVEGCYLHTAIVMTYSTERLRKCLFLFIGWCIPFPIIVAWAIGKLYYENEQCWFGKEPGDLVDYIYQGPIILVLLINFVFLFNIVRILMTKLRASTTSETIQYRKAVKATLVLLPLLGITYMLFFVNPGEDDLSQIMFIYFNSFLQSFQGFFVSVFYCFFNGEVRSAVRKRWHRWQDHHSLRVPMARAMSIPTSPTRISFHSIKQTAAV
T1 sequence (P24387 whole entry): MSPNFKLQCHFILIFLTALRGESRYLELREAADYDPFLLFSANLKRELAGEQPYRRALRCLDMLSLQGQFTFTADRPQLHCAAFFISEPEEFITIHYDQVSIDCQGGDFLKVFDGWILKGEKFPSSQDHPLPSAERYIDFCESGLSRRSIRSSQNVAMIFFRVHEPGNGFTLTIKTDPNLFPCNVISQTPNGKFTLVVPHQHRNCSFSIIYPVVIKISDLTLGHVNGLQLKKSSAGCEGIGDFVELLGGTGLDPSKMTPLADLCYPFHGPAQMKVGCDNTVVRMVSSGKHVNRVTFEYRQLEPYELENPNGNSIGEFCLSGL

[2] = target: T1, Corticotropin-releasing factor receptor 2/Corticotropin-releasing factor-binding protein; experiment: activators of CRF receptor 2 with binding protein – uHTS hits, confirmation (AID 602473); format: functional; details: read-out: EC50_Mean
[3] = CRF-BP/CRF-R2 complex antagonists, dose response, cell-based, uHTS hits, 384-well (AID 651639); format: functional, Homo sapiens; details: read-out: IC50_Mean
Cytochrome P450 2D6 = Cytochrome P450 2D6 (Homo sapiens, UniProt P10635);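 further: CYP2D6 member of a cytochrome P450 panel assay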
Cytochrome P450 2C9 = Cytochrome P450 2C9 (Homo sapiens, UniProt P11712)
Kallikrein-7 = Kallikrein-7 (Homo sapiens, UniProt P49862); experiment: Fluorescence Intensity-based biochemical primary high throughput dose response assay to identify activators of kallikrein-7 (K7) zymogen.
[4] = inhibitors of HIV Env-driven cell fusion, dose response, cherry-pick (AID 652057); format: functional, cell-based
[5] = CEM21 lymphoblast cell cytotoxicity, dose response, cytotoxicity control for viral fusion inhibitor project, CellTiter-Glo luminescence, cherry-picked (AID 652042); format: functional, cell-based;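 further: potency for signal decrease meaning cytotoxicity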
[6] = ZM109 Env clade C HIV-1 fusion inhibitors, dose response, HeLa effector, CEM target cells, luciferase, cherry-pick (AID 652058); format: functional, cell-based
[7] = off-target signal loss in HeLa-CEM21 co-culture – HeLa F-luc CTL cells, cherry-picked, counter-screen for HIV-1 Env fusion inhibitor project, dose response (AID 652040); format: functional, cell-based;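 further: potency for signal decrease marking cytotoxic or nonspecific inhibition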
[8] = inhibitors of clade B AD8 Env fusion, dose response, cell-based, cherry-pick (AID 652062); format: functional;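 further: luciferase signal from cell-cell fusion driven by HIV-1 clade B AD8 Env; potency is for inhibitors of fusion seen as a drop in luminescence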
[9] = P. falciparum late gametocyte killing, dose response, luminescence (AID 1117278); format: functional, cell-based;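 further: gametocytes exposed to compound for 24 hours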
[10] = Jurkat T cell cytotoxicity, dose response, cytotoxicity control for P. falciparum gametocyte viability project, luminescence (AID 1117277); format: functional, cell-based;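 further: potency reflects loss of cellular ATP meaning fewer viable cells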
[11] = target: Heat shock protein HSP 90-alpha (Homo sapiens, UniProt P07900); format: functional, organism-based
Vero = experiment: cells; format: functional; details: Chlorocebus sabaeus
[12] = target: T2, Long-chain-fatty-acid--AMP ligase FadD28 (Mycobacterium tuberculosis, UniProt P9WQ59); experiment: Fluorescence polarization aasay to screen for inhibitors that compete for the binding of FadD28 to a bisubstrate Measured in Biochemical System Using Plate Reader - 2147-01_Inhibitor_Dose_CherryPick_Activity.; format: functional, Mycobacterium tuberculosis H37Rv
T2 sequence (P9WQ59 whole entry): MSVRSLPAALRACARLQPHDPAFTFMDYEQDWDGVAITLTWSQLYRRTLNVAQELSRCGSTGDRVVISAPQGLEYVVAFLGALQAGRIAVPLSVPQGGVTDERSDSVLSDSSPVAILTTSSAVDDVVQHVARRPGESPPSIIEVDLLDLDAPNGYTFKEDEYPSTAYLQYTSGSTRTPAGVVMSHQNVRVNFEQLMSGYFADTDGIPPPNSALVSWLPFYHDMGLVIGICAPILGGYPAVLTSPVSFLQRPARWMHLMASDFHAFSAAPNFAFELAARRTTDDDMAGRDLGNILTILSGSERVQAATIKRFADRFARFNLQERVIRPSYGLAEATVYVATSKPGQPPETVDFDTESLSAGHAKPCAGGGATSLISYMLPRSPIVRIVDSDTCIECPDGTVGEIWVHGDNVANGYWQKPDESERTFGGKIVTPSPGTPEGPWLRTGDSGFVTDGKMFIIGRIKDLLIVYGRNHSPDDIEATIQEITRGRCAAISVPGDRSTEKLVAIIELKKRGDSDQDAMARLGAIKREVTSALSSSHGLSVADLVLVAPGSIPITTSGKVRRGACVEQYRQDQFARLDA

Aminopeptidase N = target: T3, Aminopeptidase N (Plasmodium falciparum FcB1/Columbia, UniProt O96935); experiment: P. falciparum M1AAP inhibitors, biochemical, fluorogenic H-Leu-NHMec substrate, 1536-well (AID 1445); parameters: species or system Plasmodium falciparum 3D7, 3D7
T3 sequence (O96935 whole entry): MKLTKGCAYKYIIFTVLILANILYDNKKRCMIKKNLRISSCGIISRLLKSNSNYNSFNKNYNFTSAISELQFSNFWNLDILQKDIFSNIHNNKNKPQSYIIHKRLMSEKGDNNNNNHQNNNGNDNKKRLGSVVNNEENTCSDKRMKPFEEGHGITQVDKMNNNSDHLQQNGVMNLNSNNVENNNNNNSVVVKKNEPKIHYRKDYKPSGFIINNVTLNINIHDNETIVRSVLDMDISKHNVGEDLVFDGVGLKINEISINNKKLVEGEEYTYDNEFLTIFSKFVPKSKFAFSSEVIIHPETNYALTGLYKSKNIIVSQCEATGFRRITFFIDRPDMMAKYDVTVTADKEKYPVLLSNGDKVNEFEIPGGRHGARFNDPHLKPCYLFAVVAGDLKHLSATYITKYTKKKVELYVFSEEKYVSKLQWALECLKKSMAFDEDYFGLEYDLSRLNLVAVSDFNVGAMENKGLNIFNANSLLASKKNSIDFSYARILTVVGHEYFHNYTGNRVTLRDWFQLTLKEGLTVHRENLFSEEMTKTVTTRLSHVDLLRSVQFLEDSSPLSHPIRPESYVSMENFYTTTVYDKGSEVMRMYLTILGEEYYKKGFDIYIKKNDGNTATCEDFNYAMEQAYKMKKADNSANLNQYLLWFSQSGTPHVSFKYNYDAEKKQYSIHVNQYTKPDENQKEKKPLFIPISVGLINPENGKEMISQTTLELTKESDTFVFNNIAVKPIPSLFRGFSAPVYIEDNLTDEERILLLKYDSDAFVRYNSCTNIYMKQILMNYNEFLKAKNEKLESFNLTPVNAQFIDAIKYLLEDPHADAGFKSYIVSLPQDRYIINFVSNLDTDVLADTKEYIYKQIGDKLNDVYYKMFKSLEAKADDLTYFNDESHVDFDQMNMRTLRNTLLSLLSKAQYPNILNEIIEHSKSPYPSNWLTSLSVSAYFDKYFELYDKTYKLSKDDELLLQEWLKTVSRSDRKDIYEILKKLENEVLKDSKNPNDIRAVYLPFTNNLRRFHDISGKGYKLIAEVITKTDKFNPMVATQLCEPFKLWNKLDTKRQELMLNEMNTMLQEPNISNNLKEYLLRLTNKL

Cytochrome P450 2C19 = Cytochrome P450 2C19 (Homo sapiens, UniProt P33261); experiment: Cytochrome panel assay with activity outcomes. Panel member name: p450-cyp2c19 Compounds with AC50 equal or less than 10 uM are considered active; format: functional; details: read-out: AC50
Protein Tat = target: T4, Protein Tat (Human immunodeficiency virus type 1 group M subtype B (isolate HXB2)(HIV-1), UniProt P04608); format: functional;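 further: tat binding to TAR RNA read out by fluorescence polarization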
T4 sequence (P04608 whole entry): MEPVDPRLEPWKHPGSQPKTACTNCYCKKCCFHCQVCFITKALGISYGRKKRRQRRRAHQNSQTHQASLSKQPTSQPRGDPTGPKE

Paired box protein Pax-8 = Paired box protein Pax-8 (Homo sapiens, UniProt Q06710); experiment: inhibitors of PAX8-driven TPO luciferase reporter, dose response, RMG-I cells, cherry-pick (AID 687027); format: functional, cell-based;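 further: luciferase reporter driven by Pax8 target thyroperoxidase promoter measured by SteadyGlo luminescence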
[13] = NIH:OVCAR-3 ovarian cancer cell cytotoxicity, dose response, PAX8 inhibitor project, plate reader, dry powder samples (AID 743044); format: functional, cell-based
[14] = IGROV1 ovarian cancer cell cytotoxicity, dose response, PAX8 inhibitor project, plate reader, dry powder samples (AID 743043); format: functional, cell-based; details: IGROV-1
[15] = cytotoxicity in OVCAR8 ovarian cancer cells, dose response, PAX8 project, cell-based, plate reader, dry powder samples (AID 743197); format: functional; details: OVCAR-8

Chain of Beta-galactosidase (Q8VNN2 whole entry): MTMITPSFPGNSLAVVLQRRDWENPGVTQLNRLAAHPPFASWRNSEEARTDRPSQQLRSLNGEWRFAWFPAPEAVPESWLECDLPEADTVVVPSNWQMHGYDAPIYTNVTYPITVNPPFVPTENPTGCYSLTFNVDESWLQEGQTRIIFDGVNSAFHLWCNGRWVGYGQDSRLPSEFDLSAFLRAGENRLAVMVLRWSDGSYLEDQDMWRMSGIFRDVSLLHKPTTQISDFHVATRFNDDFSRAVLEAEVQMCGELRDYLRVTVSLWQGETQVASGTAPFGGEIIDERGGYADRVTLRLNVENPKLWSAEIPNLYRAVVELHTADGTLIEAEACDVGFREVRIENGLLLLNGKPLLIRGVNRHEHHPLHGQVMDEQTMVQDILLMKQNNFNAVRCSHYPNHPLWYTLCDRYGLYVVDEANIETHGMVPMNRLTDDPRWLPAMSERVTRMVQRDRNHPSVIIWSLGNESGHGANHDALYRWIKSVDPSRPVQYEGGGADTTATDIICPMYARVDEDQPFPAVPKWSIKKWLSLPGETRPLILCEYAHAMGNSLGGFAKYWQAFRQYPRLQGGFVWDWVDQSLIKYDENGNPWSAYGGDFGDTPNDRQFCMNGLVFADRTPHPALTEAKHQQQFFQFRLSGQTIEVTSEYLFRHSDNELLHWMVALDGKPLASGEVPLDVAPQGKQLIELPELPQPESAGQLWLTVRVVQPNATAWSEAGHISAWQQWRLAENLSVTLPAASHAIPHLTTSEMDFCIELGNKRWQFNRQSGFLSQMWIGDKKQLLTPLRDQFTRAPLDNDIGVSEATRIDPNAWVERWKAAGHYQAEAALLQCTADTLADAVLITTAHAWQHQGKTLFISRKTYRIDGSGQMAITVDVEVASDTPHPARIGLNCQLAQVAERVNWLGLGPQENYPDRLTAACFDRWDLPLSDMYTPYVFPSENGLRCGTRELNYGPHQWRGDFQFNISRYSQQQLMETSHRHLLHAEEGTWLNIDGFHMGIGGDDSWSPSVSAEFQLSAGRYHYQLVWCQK
Chain of Kallikrein-7 (P49862 whole entry, the tested form may be a part): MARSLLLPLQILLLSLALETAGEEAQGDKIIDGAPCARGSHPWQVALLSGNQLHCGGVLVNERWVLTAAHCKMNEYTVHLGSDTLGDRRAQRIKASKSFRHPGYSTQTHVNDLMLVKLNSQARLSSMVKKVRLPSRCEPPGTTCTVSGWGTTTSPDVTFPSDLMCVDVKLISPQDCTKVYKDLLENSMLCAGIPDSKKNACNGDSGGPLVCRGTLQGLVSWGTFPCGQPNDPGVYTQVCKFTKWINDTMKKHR
Chain of Paired box protein Pax-8 (Q06710 whole entry): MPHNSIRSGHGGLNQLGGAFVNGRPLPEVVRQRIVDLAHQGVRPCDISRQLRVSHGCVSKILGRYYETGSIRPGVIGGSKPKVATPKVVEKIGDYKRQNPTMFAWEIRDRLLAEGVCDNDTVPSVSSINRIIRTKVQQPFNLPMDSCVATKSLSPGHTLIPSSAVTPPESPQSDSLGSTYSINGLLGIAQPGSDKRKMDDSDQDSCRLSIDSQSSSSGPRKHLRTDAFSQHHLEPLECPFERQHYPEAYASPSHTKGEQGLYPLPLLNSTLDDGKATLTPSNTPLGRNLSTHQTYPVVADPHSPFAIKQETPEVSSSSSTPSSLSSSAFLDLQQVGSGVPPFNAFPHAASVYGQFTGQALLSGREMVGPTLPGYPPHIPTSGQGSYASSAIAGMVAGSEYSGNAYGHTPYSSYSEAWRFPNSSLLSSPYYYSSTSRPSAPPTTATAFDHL
Chain of Cytochrome P450 2D6 (P10635 whole entry): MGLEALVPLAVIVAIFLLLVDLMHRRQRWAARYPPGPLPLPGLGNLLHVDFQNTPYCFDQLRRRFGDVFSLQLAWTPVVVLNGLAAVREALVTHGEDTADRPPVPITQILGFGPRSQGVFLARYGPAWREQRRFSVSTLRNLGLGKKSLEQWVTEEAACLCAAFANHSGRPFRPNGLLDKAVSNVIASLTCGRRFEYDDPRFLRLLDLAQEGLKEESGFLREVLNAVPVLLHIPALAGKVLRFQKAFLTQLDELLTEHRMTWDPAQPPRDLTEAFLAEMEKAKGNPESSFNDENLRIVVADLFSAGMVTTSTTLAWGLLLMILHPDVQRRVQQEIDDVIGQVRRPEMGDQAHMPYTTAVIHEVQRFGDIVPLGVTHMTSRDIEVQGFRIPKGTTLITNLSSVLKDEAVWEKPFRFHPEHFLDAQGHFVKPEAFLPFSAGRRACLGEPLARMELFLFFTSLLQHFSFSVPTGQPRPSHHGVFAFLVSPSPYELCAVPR
Chain of Cytochrome P450 2C19 (P33261 whole entry): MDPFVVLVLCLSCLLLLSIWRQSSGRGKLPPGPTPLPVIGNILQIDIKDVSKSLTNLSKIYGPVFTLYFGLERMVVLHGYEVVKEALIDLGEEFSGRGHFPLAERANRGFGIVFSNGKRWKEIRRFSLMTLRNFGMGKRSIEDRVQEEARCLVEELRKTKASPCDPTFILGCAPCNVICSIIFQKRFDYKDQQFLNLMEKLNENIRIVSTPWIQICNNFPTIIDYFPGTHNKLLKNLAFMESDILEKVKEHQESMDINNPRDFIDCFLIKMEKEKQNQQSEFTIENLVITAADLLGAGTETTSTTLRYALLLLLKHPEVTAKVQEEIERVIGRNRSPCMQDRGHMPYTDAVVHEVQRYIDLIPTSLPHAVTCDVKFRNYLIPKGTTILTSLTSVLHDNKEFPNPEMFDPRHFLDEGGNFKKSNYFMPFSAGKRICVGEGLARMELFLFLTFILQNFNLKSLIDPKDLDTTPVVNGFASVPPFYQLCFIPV
Chain of Cytochrome P450 2C9 (P11712 whole entry): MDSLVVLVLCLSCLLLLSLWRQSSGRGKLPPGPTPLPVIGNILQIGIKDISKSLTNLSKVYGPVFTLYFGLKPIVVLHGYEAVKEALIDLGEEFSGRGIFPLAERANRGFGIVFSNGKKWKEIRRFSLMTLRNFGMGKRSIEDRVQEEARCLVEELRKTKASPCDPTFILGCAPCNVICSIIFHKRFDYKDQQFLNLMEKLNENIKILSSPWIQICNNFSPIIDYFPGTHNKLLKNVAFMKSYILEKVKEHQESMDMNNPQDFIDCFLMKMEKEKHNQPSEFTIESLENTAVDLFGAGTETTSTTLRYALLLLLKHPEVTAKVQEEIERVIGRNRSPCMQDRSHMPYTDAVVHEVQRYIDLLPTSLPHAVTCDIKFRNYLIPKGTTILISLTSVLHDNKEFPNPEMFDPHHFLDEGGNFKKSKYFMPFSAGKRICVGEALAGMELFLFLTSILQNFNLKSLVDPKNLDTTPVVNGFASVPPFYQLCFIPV

In the case of `CCN(CC(=O)Nc1c(F)cccc1F)C(=O)/C=C/c1ccc(C)cc1`, the IC50 (Beta-galactosidase) is reported as > 80 µM (inactive).
In the case of `N#Cc1cccc(C(c2nnnn2C2CCCC2)N2CCCCCC2)c1` (stereo not drawn), the IC50 [1] is reported as 20.7 µM (active), the EC50 [2] is reported as > 53 µM (inactive) and the IC50 [3] is reported as > 20 µM (inactive). For the same molecule, the AC50 (Cytochrome P450 2D6) was 11.2 µM (inconclusive) and the AC50 (Cytochrome P450 2C9) was 35.5 µM (inconclusive).
For `CCOC(=O)C1CCN(S(=O)(=O)c2cccc(-c3cn4cccnc4n3)c2)CC1`, the EC50 (Kallikrein-7) was > 69.5 µM (inactive).
For `Cc1oc(-c2cccc(Cl)c2)nc1CN1CCCC(C(=O)NC(C)c2ccc3c(c2)OCCO3)C1` (stereo not drawn), the AC50 [4] was 2.58 µM (active), the AC50 [5] was 54.5 µM (active) and the AC50 [6] was 3.47 µM (active). The AC50 [7] was 3.92 µM (active) and the AC50 [8] was 4.68 µM (active).
In the case of `CCC(c1nnnn1C1CCCC1)N1CCN(Cc2ccccc2)CC1` (stereo not drawn), the IC50 [1] is reported as < 0.368 µM (active), the EC50 [2] is reported as > 53 µM (inactive) and the IC50 [3] is reported as > 20 µM (inactive).
With `NCCCN1CCOCC1` the IC50 [9] was > 109 µM (inactive) and the IC50 [10] was > 83.4 µM (inactive).
With `COC(=O)c1cc(OC)c(OC)cc1NC(=O)c1c(-c2ccccc2)noc1C` the IC50 [1] was 16.2 µM (active), the EC50 [2] was > 53 µM (inactive) and the IC50 [3] was 1.87 µM (active).
With `COc1ccc(C(=O)/C=C2\C(=O)Nc3ccc(Br)cc32)cc1` the AC50 [11] was 1.59 µM (active), the CC50 (Vero) was 14.9 µM (active) and the IC50 (Beta-galactosidase) was 71.6 µM (inactive).
In the case of `O=C(COC(=O)c1ccc(O)cc1O)Nc1cccc2ccccc12`, the AC50 [12] is reported as > 100 µM (inactive).
In the case of `CS(=O)(=O)N(CC(=O)N1CCC(C(N)=O)CC1)C1CCCCC1`, the IC50 [9] is reported as > 109 µM (inactive) and the IC50 [10] is reported as > 83.3 µM (inactive).
With `CC(=O)/N=C1\C(=O)N(C)c2cccc3c(O)c4ccccc4c1c23` the IC50 (Aminopeptidase N) was 27.9 µM (active), the AC50 (Cytochrome P450 2C19) was 14.1 µM (inconclusive) and the IC50 (Protein Tat) was > 100 µM (active).
In the case of `C[C@H]1CCCCO[C@@H](CN(C)S(=O)(=O)c2ccccc2)[C@@H](C)CN([C@@H](C)CO)C(=O)c2cc(NC(=O)Nc3ccc(C(F)(F)F)cc3)ccc2O1`, the AC50 (Paired box protein Pax-8) is reported as 6.6 µM (active), the AC50 [13] is reported as 19.4 µM (active) and the AC50 [14] is reported as 53.1 µM (active). For the same molecule, the AC50 [15] was 52.4 µM (active).
